Measured values as given in ChEMBL document CHEMBL5463721, “Data for DCP probe WEB2086” (2023).

Legend:
[1] = molecular target: 5-hydroxytryptamine receptor 1B (Homo sapiens) (UniProt P28222); test: 5-HT1B Eurofins-Cerep binding assay; set-up: ligand concentration 1 nM; conditions: Compound concentration 10.0 uM
[2] = molecular target: Cannabinoid receptor 1 (Homo sapiens) (UniProt P21554); test: CB1 Eurofins-Cerep binding assay; conditions: Compound concentration 10.0 uM
[3] = molecular target: Prostaglandin G/H synthase 1 (Homo sapiens) (UniProt P23219); test: Inhibitor of COX-1 in the Eurofins Cerep SafetyScreen44 (BI) by Fluorimetry (Cerep_4173); conditions: Compound concentration 10.0 uM
[4] = molecular target: Prostaglandin G/H synthase 2 (Homo sapiens) (UniProt P35354); test: Inhibitor of COX-2 in the Eurofins Cerep SafetyScreen44 (BI) by Fluorimetry (Cerep_4186); conditions: Compound concentration 10.0 uM
[5] = molecular target: Kappa-type opioid receptor (Homo sapiens) (UniProt P41145); test: kappa (KOP) Eurofins-Cerep binding assay; conditions: Compound concentration 10.0 uM
[6] = molecular target: 5-hydroxytryptamine receptor 1A (Homo sapiens) (UniProt P08908); test: 5-HT1A Eurofins-Cerep binding assay; set-up: ligand concentration 0.5 nM; conditions: Compound concentration 10.0 uM
[7] = molecular target: 5-hydroxytryptamine receptor 2A (Homo sapiens) (UniProt P28223); test: Agonist activity in the Eurofins Cerep SafetyScreen44 (BI) against 5HT2AH_AGON by Scintillation counting (Cerep_471); conditions: Compound concentration 10.0 uM
[8] = molecular target: 5-hydroxytryptamine receptor 2B (Homo sapiens) (UniProt P41595); test: 5-HT2B Eurofins-Cerep binding assay; conditions: Compound concentration 10.0 uM
[9] = molecular target: 5-hydroxytryptamine receptor 3A (Homo sapiens) (UniProt P46098); test: 5-HT3 Eurofins-Cerep binding assay; set-up: ligand concentration 0.5 nM; conditions: Compound concentration 10.0 uM
[10] = molecular target: Adenosine receptor A2a (Homo sapiens) (UniProt P29274); test: A2A Eurofins-Cerep binding assay; set-up: ligand concentration 6 nM; conditions: Compound concentration 10.0 uM
[11] = molecular target: Angiotensin-converting enzyme (Homo sapiens) (UniProt P12821); test: Activity against ACE(HU_AMTCH400) in the Eurofins Cerep SafetyScreen44 (BI) by Photometry (Cerep_3441); conditions: Compound concentration 10.0 uM
[12] = molecular target: Alpha-1A adrenergic receptor (Homo sapiens) (UniProt P35348); test: Agonist activity in the Eurofins Cerep SafetyScreen44 (BI) against ALPHA1AH_ANTAG by Scintillation counting (Cerep_2338); conditions: Compound concentration 10.0 uM
[13] = molecular target: Alpha-2A adrenergic receptor (Homo sapiens) (UniProt P08913); test: Inhibitor of ALPHA2A/HU in the Eurofins Cerep SafetyScreen44 (BI) by Radioactive Assay (Cerep_13); conditions: Compound concentration 10.0 uM
[14] = molecular target: Beta-1 adrenergic receptor (Homo sapiens) (UniProt P08588); test: beta 1 Eurofins-Cerep binding assay; set-up: ligand concentration 0.3 nM; conditions: Compound concentration 10.0 uM
[15] = molecular target: Beta-2 adrenergic receptor (Homo sapiens) (UniProt P07550); test: beta 2 Eurofins-Cerep binding assay; conditions: Compound concentration 10.0 uM
[16] = species: Rattus norvegicus; test: Activity against BZD/CENTR/R in the Eurofins Cerep SafetyScreen44 (BI) by Radioactive Assay (Cerep_28); assay type: protein-complex assay; conditions: Compound concentration 10.0 uM
[17] = molecular target: L-type calcium channel (dihydropyridine site), Cav1.2 alpha-1C (Rattus norvegicus, UniProt P22002); test: Inhibitor of CA+/DHPSI/R in the Eurofins Cerep SafetyScreen44 (BI) by Radioactive Assay (Cerep_161); assay type: protein assay; set-up: scale not given: the % may be the effect or the level left; conditions: rat brain, probe [3H](+)PN200-110, compound concentration 10 uM, read-out: % Ctrl
[18] = molecular target: Cannabinoid receptor 2 (Homo sapiens) (UniProt P34972); test: Activity against CB2/PERIPH/H in the Eurofins Cerep SafetyScreen44 (BI) by Radioactive Assay (Cerep_37); conditions: Compound concentration 10.0 uM
[19] = molecular target: Cholecystokinin receptor type A (Homo sapiens) (UniProt P32238); test: CCK1 (CCKA) Eurofins-Cerep binding assay; set-up: ligand concentration 0.08 nM; conditions: Compound concentration 10.0 uM
[20] = molecular target: D(1A) dopamine receptor (Homo sapiens) (UniProt P21728); test: D1 Eurofins-Cerep binding assay; set-up: ligand concentration 0.3 nM; conditions: Compound concentration 10.0 uM
[21] = molecular target: D(2) dopamine receptor (Homo sapiens) (UniProt P14416); test: Agonist activity in the Eurofins Cerep SafetyScreen44 (BI) against D2SH_AGON by Scintillation counting (Cerep_1322); conditions: Compound concentration 10.0 uM
[22] = molecular target: Sodium-dependent dopamine transporter (Homo sapiens) (UniProt Q01959); test: dopamine transporter Eurofins-Cerep binding assay; conditions: Compound concentration 10.0 uM
[23] = molecular target: Delta-type opioid receptor (Homo sapiens) (UniProt P41143); test: delta (DOP) Eurofins-Cerep binding assay; set-up: ligand concentration 0.5 nM; conditions: Compound concentration 10.0 uM
[24] = molecular target: Endothelin-1 receptor (Homo sapiens) (UniProt P25101); test: ETA Eurofins-Cerep binding assay; set-up: ligand concentration 0.03 nM; conditions: Compound concentration 10.0 uM
[25] = molecular target: Glucocorticoid receptor (Homo sapiens) (UniProt P04150); test: GR Eurofins-Cerep binding assay; conditions: Compound concentration 10.0 uM
[26] = molecular target: Histamine H1 receptor (Homo sapiens) (UniProt P35367); test: H1 Eurofins-Cerep binding assay; set-up: ligand concentration 1 nM; conditions: Compound concentration 10.0 uM
[27] = molecular target: Histamine H2 receptor (Homo sapiens) (UniProt P25021); test: H2 Eurofins-Cerep binding assay; set-up: ligand concentration 0.075 nM; conditions: Compound concentration 10.0 uM
[28] = molecular target: hERG (KCNH2) (Homo sapiens, UniProt Q12809); test: Inhibitor of HERG_DOFETILIDE in the Eurofins Cerep SafetyScreen44 (BI) by Scintillation counting (Cerep_4094); set-up: scale not given: the % may be the effect or the level left; conditions: probe [3H] dofetilide, compound concentration 10 uM, read-out: % Ctrl
[29] = species: Rattus norvegicus; test: KV channel Eurofins-Cerep binding assay; set-up: ligand concentration 0.01 nM; conditions: Compound concentration 10.0 uM
[30] = molecular target: Tyrosine-protein kinase Lck (Homo sapiens) (UniProt P06239); test: Inhibitor of LCK_CE in the Eurofins Cerep SafetyScreen44 (BI) by lanthanide chelation excitation (Cerep_2906); conditions: Compound concentration 10.0 uM
[31] = molecular target: Muscarinic acetylcholine receptor M1 (Homo sapiens) (UniProt P11229); test: M1 Eurofins-Cerep binding assay; set-up: ligand concentration 2 nM; conditions: Compound concentration 10.0 uM
[32] = molecular target: Muscarinic acetylcholine receptor M2 (Homo sapiens) (UniProt P08172); test: M2 Eurofins-Cerep binding assay; set-up: ligand concentration 2 nM; conditions: Compound concentration 10.0 uM
[33] = molecular target: Muscarinic acetylcholine receptor M3 (Homo sapiens) (UniProt P20309); test: M3 Eurofins-Cerep binding assay; set-up: ligand concentration 0.2 nM; conditions: Compound concentration 10.0 uM
[34] = molecular target: MAO-A (amine oxidase [flavin-containing] A) (Homo sapiens, UniProt P21397); test: Agonist activity in the Eurofins Cerep SafetyScreen44 (BI) against MAO-A_ANTAG by Scintillation counting (Cerep_443); set-up: scale not given: the % may be the effect or the level left; conditions: rat; compound concentration 10 uM; read-out: % Ctrl
[35] = molecular target: Mu-type opioid receptor (Homo sapiens) (UniProt P35372); test: mu (MOP) Eurofins-Cerep binding assay; set-up: ligand concentration 0.5 nM; conditions: Compound concentration 10.0 uM
[36] = molecular target: Sodium-dependent noradrenaline transporter (Homo sapiens) (UniProt P23975); test: norepinephrine transporter Eurofins-Cerep binding assay; set-up: ligand concentration 1 nM; conditions: Compound concentration 10.0 uM
[37] = molecular target: Glutamate NMDA receptor (Rattus norvegicus) (UniProt P35439+Q00959+Q00960+Q00961+Q62645+Q8VHN2+Q9R1M7); test: Inhibitor of NMDA/R in the Eurofins Cerep SafetyScreen44 (BI) by Radioactive Assay (Cerep_66); assay type: protein-complex assay; conditions: Compound concentration 10.0 uM
[38] = species: Homo sapiens; test: Agonist activity in the Eurofins Cerep SafetyScreen44 (BI) against N_NEURO_A4B2 by Radioligand Binding (Cerep_3029); assay type: protein-complex assay; conditions: Compound concentration 10.0 uM
[39] = molecular target: cGMP-inhibited 3',5'-cyclic phosphodiesterase 3A (Homo sapiens) (UniProt Q14432); test: Inhibitor of PDE3A in the Eurofins Cerep SafetyScreen44 (BI) by HTRF-homogeneous time resolved fluoresce (Cerep_4072); conditions: Compound concentration 10.0 uM
[40] = molecular target: 3',5'-cyclic-AMP phosphodiesterase 4D (Homo sapiens) (UniProt Q08499); test: Inhibitor of PDE4D2 in the Eurofins Cerep SafetyScreen44 (BI) by Scintillation counting (Cerep_4077); conditions: Compound concentration 10.0 uM
[41] = molecular target: Sodium-dependent serotonin transporter (Homo sapiens) (UniProt P31645); test: 5-HT transporter Eurofins-Cerep binding assay; set-up: ligand concentration 2 nM; conditions: Compound concentration 10.0 uM
[42] = molecular target: Vasopressin V1a receptor (Homo sapiens) (UniProt P37288); test: V1a Eurofins-Cerep binding assay; set-up: ligand concentration 0.3 nM; conditions: Compound concentration 10.0 uM

Sequence of Prostaglandin G/H synthase 2 (Homo sapiens) (P35354 whole entry): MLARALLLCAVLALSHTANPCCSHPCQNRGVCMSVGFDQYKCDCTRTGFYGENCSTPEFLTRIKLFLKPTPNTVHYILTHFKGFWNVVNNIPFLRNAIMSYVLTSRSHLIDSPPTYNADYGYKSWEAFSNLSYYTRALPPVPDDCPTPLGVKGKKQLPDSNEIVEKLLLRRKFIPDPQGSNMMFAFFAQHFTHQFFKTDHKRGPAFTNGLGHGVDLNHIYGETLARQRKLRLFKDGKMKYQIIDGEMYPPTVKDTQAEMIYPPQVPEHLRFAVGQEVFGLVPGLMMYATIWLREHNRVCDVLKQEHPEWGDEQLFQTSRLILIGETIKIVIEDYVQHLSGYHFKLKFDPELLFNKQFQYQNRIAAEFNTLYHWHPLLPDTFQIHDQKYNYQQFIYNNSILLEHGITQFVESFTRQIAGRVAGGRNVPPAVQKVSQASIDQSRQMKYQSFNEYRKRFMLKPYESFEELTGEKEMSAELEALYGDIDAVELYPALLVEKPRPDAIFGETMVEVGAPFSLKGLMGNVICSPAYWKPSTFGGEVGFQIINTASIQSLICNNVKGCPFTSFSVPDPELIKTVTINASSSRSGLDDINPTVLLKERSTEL
Sequence of 5-hydroxytryptamine receptor 1A (Homo sapiens) (P08908 whole entry): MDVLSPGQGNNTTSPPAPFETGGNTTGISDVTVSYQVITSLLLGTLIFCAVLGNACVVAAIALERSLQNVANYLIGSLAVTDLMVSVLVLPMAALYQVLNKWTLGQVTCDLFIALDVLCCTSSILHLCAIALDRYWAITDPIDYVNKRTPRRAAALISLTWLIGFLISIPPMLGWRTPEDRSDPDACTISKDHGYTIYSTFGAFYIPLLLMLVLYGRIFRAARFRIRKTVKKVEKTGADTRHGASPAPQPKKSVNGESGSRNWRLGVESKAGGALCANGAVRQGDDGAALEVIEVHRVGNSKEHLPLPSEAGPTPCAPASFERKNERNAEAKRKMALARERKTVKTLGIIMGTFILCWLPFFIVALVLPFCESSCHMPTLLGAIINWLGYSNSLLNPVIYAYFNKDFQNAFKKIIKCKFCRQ
Sequence of Angiotensin-converting enzyme (Homo sapiens) (P12821 whole entry): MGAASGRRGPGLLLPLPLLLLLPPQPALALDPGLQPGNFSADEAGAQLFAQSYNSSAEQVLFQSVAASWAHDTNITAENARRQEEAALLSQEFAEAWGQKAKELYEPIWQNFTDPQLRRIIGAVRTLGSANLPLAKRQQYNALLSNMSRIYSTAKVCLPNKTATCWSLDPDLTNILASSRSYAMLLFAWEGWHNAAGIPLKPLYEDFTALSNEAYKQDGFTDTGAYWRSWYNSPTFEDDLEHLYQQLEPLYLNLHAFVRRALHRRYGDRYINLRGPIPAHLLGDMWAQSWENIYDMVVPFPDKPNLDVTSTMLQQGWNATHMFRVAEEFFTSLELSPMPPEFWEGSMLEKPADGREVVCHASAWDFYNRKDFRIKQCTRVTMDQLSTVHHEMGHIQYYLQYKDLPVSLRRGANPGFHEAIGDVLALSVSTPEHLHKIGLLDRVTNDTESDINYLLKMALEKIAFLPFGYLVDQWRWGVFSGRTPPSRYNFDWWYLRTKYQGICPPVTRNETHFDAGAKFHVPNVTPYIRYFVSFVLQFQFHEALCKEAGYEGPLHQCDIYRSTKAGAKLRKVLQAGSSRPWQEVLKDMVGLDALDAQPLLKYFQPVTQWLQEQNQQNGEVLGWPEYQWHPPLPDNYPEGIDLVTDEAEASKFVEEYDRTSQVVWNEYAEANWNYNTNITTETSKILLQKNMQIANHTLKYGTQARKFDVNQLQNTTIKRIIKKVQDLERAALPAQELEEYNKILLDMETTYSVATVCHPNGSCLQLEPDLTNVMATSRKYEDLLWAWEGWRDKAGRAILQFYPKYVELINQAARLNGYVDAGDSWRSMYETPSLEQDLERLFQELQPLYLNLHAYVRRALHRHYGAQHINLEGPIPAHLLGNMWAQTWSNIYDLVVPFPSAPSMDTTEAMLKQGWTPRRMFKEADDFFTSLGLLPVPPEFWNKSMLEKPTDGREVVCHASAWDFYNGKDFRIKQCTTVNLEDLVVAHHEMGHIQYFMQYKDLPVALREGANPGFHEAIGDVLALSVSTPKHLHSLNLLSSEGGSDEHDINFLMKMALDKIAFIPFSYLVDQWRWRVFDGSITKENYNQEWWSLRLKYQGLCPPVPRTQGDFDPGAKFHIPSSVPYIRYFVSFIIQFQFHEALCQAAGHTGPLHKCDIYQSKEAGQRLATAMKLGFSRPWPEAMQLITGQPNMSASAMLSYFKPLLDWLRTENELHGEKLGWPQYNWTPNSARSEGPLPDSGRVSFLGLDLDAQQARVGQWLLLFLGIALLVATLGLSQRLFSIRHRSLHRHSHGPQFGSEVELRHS
Sequence of Sodium-dependent noradrenaline transporter (Homo sapiens) (P23975 whole entry): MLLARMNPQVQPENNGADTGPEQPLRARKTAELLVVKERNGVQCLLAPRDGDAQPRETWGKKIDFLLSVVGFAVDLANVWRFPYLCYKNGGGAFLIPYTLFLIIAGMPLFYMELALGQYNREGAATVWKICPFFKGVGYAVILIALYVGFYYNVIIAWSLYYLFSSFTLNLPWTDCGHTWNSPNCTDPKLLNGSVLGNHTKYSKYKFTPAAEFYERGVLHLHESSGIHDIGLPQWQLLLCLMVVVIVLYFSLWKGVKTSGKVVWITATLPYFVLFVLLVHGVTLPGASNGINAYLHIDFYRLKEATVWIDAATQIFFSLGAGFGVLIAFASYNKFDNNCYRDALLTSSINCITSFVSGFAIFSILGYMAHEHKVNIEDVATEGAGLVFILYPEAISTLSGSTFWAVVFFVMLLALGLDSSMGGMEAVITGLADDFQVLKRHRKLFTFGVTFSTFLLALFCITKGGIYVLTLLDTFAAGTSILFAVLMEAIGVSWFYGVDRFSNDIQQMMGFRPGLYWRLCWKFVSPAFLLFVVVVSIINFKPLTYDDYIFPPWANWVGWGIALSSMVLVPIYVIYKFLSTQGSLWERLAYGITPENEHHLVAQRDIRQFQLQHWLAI
Sequence of Sodium-dependent dopamine transporter (Homo sapiens) (Q01959 whole entry): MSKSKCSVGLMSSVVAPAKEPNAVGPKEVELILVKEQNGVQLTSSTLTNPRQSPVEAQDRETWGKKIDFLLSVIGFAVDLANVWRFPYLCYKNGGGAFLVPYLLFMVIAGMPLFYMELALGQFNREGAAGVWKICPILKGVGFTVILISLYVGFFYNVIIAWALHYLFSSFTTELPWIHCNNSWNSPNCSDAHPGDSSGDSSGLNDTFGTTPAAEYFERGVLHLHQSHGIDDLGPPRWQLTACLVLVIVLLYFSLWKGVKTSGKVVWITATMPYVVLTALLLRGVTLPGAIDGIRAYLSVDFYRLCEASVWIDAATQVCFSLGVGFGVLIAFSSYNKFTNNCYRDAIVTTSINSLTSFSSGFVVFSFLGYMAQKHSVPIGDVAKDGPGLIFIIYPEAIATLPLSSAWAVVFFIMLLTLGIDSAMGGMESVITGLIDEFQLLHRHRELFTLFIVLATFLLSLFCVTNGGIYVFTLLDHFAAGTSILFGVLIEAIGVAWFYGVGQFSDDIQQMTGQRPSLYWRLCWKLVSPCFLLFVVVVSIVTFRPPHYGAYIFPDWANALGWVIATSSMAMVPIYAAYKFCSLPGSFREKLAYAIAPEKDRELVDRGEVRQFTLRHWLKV
Sequence of Muscarinic acetylcholine receptor M2 (Homo sapiens) (P08172 whole entry): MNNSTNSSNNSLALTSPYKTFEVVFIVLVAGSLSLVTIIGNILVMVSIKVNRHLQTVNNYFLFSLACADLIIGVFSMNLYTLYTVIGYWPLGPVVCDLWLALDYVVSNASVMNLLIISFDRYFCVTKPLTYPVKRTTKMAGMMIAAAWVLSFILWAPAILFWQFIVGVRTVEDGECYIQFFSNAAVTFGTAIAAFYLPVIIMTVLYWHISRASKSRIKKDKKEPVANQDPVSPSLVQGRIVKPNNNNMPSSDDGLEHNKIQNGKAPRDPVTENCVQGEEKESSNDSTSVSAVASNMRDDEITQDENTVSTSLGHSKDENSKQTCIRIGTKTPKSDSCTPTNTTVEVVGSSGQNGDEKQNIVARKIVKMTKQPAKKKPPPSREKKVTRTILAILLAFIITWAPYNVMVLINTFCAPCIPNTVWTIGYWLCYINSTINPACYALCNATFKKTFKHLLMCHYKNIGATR
Sequence of Prostaglandin G/H synthase 1 (Homo sapiens) (P23219 whole entry): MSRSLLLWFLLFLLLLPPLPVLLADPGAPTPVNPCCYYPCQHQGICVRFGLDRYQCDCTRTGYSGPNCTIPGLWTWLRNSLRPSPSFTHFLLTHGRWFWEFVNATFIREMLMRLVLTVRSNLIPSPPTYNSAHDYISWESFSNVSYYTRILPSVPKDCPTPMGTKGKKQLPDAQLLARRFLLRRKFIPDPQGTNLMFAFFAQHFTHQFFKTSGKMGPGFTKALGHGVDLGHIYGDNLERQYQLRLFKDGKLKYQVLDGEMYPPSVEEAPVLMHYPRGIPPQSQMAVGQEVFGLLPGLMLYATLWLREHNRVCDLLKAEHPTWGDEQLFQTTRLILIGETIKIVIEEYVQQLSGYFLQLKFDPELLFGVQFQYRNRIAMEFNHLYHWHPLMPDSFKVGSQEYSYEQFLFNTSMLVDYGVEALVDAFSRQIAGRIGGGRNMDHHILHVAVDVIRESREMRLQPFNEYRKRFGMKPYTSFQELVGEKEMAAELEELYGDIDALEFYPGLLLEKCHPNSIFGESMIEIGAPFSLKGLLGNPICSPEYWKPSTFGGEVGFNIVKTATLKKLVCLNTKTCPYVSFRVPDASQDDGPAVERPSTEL
Sequence of Histamine H2 receptor (Homo sapiens) (P25021 whole entry): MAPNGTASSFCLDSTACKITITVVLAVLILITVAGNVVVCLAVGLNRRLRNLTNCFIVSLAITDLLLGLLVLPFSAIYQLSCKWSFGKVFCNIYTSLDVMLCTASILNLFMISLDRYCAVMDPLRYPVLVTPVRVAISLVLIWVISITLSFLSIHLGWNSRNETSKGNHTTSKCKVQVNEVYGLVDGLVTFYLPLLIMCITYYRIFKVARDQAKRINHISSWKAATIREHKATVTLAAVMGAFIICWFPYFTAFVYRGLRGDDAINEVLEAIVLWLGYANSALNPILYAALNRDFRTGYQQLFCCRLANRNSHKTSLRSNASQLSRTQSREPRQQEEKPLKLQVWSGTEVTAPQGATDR

Cc1nnc2n1-c1sc(CCC(=O)N3CCOCC3)cc1C(c1ccccc1Cl)=NC2 [APAFANT]
105% (not active): activity at 10 µM [28]
106% (not active): activity at 10 µM [17]
93% (not active): activity at 10 µM [34]
active: residual activity [4] 47% | residual activity [16] 12%
inactive: residual activity [1] 91% | residual activity [2] 103% | residual activity [3] 96% | residual activity [5] 95% | residual activity [6] 101% | residual activity [7] 114% | residual activity [8] 86% | residual activity [9] 102% | residual activity [10] 104% | residual activity [11] 96% | residual activity [12] 99% | residual activity [13] 100% | residual activity [14] 101% | residual activity [15] 107% | residual activity [18] 111% | residual activity [19] 90% | residual activity [20] 101% | residual activity [21] 114% | residual activity [22] 97% | residual activity [23] 99% | residual activity [24] 106% | residual activity [25] 105% | residual activity [26] 101% | residual activity [27] 108% | residual activity [29] 94% | residual activity [30] 123% | residual activity [31] 107% | residual activity [32] 98% | residual activity [33] 98% | residual activity [35] 108% | residual activity [36] 94% | residual activity [37] 101% | residual activity [38] 104% | residual activity [39] 105% | residual activity [40] 103% | residual activity [41] 106% | residual activity [42] 109%
